Assay results reported in ChEMBL document CHEMBL1201862, “PubChem BioAssay data set” (2004).
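Tested at 5 concentrations; 48 h exposure; 96-well plates; endpoints linearly interpolated, else capped at highest concentration. Abbreviation: GI50, concentration required for 50% inhibition of growth.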 Active and inactive are the calls of the source. Rule as the data show it: active = GI50 up to about 1.1 µM and inactive = higher. Where a SMILES comes first, the peptide text is derived from it. The star is where a group is joined. Cbz = O=C(OCc1ccccc1)*

Columns and labels:
Test in all cases: NCI anticancer screen, dose series, 48 h
[1] = tested on: Malme-3M
[2] = tested on: NCI-H23
[3] = tested on: SN12C
[4] = tested on: MCF7
[5] = tested on: EKVX
[6] = tested on: PC-3
[7] = tested on: HT-29
[8] = tested on: UACC-257
[9] = tested on: HCT-116
[10] = tested on: DU-145
[11] = tested on: NCI-H460
[12] = tested on: KM12
[13] = tested on: SR
[14] = tested on: A549
[15] = tested on: NCI/ADR-RES
[16] = tested on: UO-31
[17] = tested on: SNB-19
[18] = tested on: SK-MEL-2
[19] = tested on: SF-295
[20] = tested on: SF-539

Measured: GI50

CCOC(=O)CCC(NC(=O)C(Cc1ccccc1)NC(=O)OCc1ccccc1)C(=O)OCC (stereo not drawn) (Cbz-Phe-Glu(OEt)-OEt; configuration not given here)
inactive: [1] 17.4 µM | [2] 17 µM | [3] 20.7 µM | [4] 19.2 µM | [5] 20.4 µM | [6] 18.2 µM | [7] 20.2 µM | [8] 16.9 µM | [9] 18 µM | [10] 6.58 µM | [11] 20.5 µM | [12] 17 µM | [13] 27 µM | [14] 18.8 µM | [15] 18.2 µM | [16] 17.4 µM | [17] 19.7 µM | [18] 22.3 µM | [19] 19.8 µM | [20] 20.3 µM

CCOC(=O)c1cnc2oc(/C=N/N3CC(CN4CCOCC4)OC3=O)cc2c1O (stereo not given)
inactive: [1] > 100 µM | [2] > 100 µM | [3] > 100 µM | [4] > 100 µM | [5] > 100 µM | [6] > 100 µM | [7] > 100 µM | [8] > 100 µM | [9] > 100 µM | [10] > 100 µM | [11] > 100 µM | [12] > 100 µM | [13] > 100 µM | [14] > 100 µM | [15] > 100 µM | [16] > 100 µM | [17] > 100 µM | [18] > 100 µM | [19] > 100 µM | [20] > 100 µM

O=C1Nc2cccc(Cl)c2/C1=C\c1c(-c2ccccc2)nc2n1CCS2
inactive: [1] 20.2 µM | [2] 23.3 µM | [3] 16 µM | [4] 18.4 µM | [5] 26.1 µM | [6] 18.6 µM | [7] 20.3 µM | [8] 21.4 µM | [9] 20.2 µM | [10] 19.8 µM | [11] 17.8 µM | [12] 20.8 µM | [13] 19.8 µM | [14] 18.6 µM | [15] 16.3 µM | [16] 19.1 µM | [17] 26.6 µM | [18] 20.3 µM | [19] 28.7 µM | [20] 17.1 µM
